Measurements: patent US20220153732A1, “PROTEIN SECRETION INHIBITORS” (KEZAR LIFE SCIENCES, priority 2019, published 2022)

Assays:
Format in all cases: cell-based
[1] = test system: TNFα-FL/Gaussia Luciferase; assay: Dox Induced TNFα-FL-Gluc Assay; conditions: 24 hr, doxycycline-induced, 293FRT/TO cells; read-out: 24 hr Dox Inducible TNFaFLGluc 293FRT/TO: Mean IC50
Outline: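 Compounds were added in doxycycline-containing DMSO/media to cells plated the previous day and incubated at 37° C under 5% CO2. These cells stably express a TNFα-FL/Gaussia luciferase cDNA whose expression is under T-REx (Dox-inducible) control, selected with Hygromycin and Blasticidin.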

[2] = test system: IL-2-FL/Gaussia Luciferase; assay: Dox Induced IL2-FL-Gluc Assay; conditions: 24 hr, doxycycline-induced, 293FRT/TO cells; read-out: 24 hr Dox Inducible IL2FLGIuc 293FRT/TO: Mean IC50
Outline: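 Compounds were added together with doxycycline in DMSO/media and incubated at 37° C., 5% CO2. The cells were a stably selected line carrying IL-2-FL/Gaussia luciferase under T-REx inducible control. Structures drawn without stereochemistry were tested as stereoisomer mixtures.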

[3] = test system: PD1-ss+10aa/Gaussia Luciferase; assay: Dox-Induced PD1-ss-Gluc Assay; conditions: 24 hr, doxycycline-induced, 293FRT/TO cells; read-out: 24 hr Dox Inducible PD1ssGluc 293FRT/TO: Mean IC50
Outline: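 Compounds, diluted in DMSO/media with doxycycline, were added to cells plated a day earlier and kept at 37° C under 5% CO2. The cells stably express a Gaussia luciferase construct fused to PD1-ss+10aa, induced via the T-REx system. Unassigned stereochemistry means mixture data.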

[4] = test system: human multiple myeloma cell line NCI-H929; assay: H929 Cell Viability Assay; conditions: 48 hr, NCI-H929 cells, Celltiter-Glo, read-out: 48 hr H929 Viability Celltiter-Glo: Mean EC50
Description: Plates were incubated at 37° C., 5% CO2 for 48 hours. After 48 hours, Celltiter-Glo® (Promega) was added to each well and luciferase signal was quantified using Tecan Infinite M1000 Pro for cell viability determination.
For chemical structures that include one or more stereoisomers, but are illustrated without indicating stereochemistry, the assay data refers to a mixture of stereoisomers.

[5] = test system: human multiple myeloma cell line U266B1; assay: U266 Cell Viability Assay; conditions: U-266, 48 hr, U266B1 cells, Celltiter-Glo, read-out: 48 hr U266 Viability Celltiter-Glo: Mean EC50
Outline: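 Viability measured by CellTiter-Glo luciferase signal after 48 h compound exposure (37 °C, 5% CO2) of U266B1 cells in 384-well format. Where stereochemistry is not shown, data refer to the stereoisomer mixture.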

[6] = test system: HER3-ss+4aa/Gaussia Luciferase; assay: Dox-Induced Her3-ss-Gluc Assay; conditions: 24 hr, doxycycline-induced, 293FRT/TO cells; read-out: 24 hr Dox Inducible Her3(ss + 4)Gluc 293FRT/TO: Mean IC50
Outline: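 Compounds, diluted in DMSO/media containing doxycycline, were incubated at 37° C., 5% CO2 with cells seeded one day earlier. The cells stably express HER3-ss+4aa/Gaussia luciferase under T-REx control. Where no stereochemistry is shown, data refer to the mixture of stereoisomers.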

Compound	IC50 [1] [µM]	IC50 [2] [µM]	IC50 [3] [µM]	EC50 [4] [µM]	EC50 [5] [µM]	IC50 [6] [µM]
O=C(Nc1nc(/C=C/c2ncc(F)cc2F)cs1)c1cccn1Cc1ccncc1 [Compound A358]	3.57	0.765	0.029	17.9	> 25	0.443
O=C(Nc1nc([C@H]2CCCN2c2ccc3c(c2)OCO3)cs1)c1cccn1Cc1ccncc1 [Compound A359]	0.083	0.015	0.011	0.382	> 25	0.013
O=C(Nc1ncc(Cl)s1)c1cccn1Cc1ccncc1 [Compound B1]	> 25	6.29	1.89	> 25	> 25	4.32
C=Cc1csc(NC(=O)c2cccn2Cc2ccncc2)n1 [Compound B2]	> 25	8.42	1.97	> 25	> 25	12.1
Cc1ccc(S(=O)(=O)CCOC(C)(C)c2csc(NC(=O)c3cccn3Cc3ccncc3)n2)cc1 [Compound B3, 1-(pyridin-4-ylmethyl)-N-(4-(2-(2-tosylethoxy)propan-2-yl)thiazol-2-yl)-1H-pyrrole-2-carboxamide]	> 25	2.93	2.84	> 25	> 25	4.24
CC(C)(C)c1cc(NC(=O)c2cccn2Cc2ccncc2)no1 [Compound B4, N-(5-(tert-butyl)isoxazol-3-yl)-1-(pyridin-4-ylmethyl)-1H-pyrrole-2-carboxamide]	> 25	22.5	3.02	> 25	> 25	11.2
CC(C)c1coc(NC(=O)c2cccn2Cc2ccncc2)n1 [Compound B5, N-(4-isopropyloxazol-2-yl)-1-(pyridin-4-ylmethyl)-1H-pyrrole-2-carboxamide]	> 25	10.6	3.24	> 25	> 25	12.6
O=C(Nc1nccs1)c1cccn1Cc1ccncc1 [Compound B6]	> 25	> 25	6.66	> 25	> 25	> 25
CCc1nc(NC(=O)c2cccn2Cc2ccccc2Cl)sc1C [Compound B7, 1-(2-chlorobenzyl)-N-(4-ethyl-5-methylthiazol-2-yl)-1H-pyrrole-2-carboxamide]	> 25	24.3	9.07	> 25	> 25	20
Cc1cc(NC(=O)c2cccn2Cc2ccncc2)no1 [Compound B8, N-(5-methylisoxazol-3-yl)-1-(pyridin-4-ylmethyl)-1H-pyrrole-2-carboxamide]	> 25	> 25	9.1	> 25	> 25	> 25
CCc1nc(NC(=O)c2cccn2Cc2ccccc2)sc1C [Compound B9, 1-benzyl-N-(4-ethyl-5-methylthiazol-2-yl)-1H-pyrrole-2-carboxamide]	> 25	> 25	9.43	> 25	> 25	> 25
CCc1cc(NC(=O)c2cccn2Cc2ccncc2)ccc1C [Compound B10, N-(3-ethyl-4-methylphenyl)-1-(pyridin-4-ylmethyl)-1H-pyrrole-2-carboxamide]	> 25	> 25	11.9	> 25	> 25	> 25
CC(C)(C)c1csc(NC(=O)c2cccn2Cc2ccccc2Cl)n1 [Compound B11, N-(4-(tert-butyl)thiazol-2-yl)-1-(2-chlorobenzyl)-1H-pyrrole-2-carboxamide]	> 25	> 25	22.7	> 25	> 25	5.57
CC(C)OC(C)(C)c1csc(NC(=O)Cc2ccc(Cc3ccncc3)[nH]2)n1 [Compound B12, N-(4-(2-isopropoxypropan-2-yl)thiazol-2-yl)-2-(5-(pyridin-4-ylmethyl)-1H-pyrrol-2-yl)acetamide]	> 25	> 25	> 25	> 25	> 25	> 25

Next, values leading:

IC50 [1] [µM]	IC50 [2] [µM]	IC50 [3] [µM]	EC50 [4] [µM]	EC50 [5] [µM]	IC50 [6] [µM]	Compound
> 25	> 25	> 25	> 25	> 25	> 25	CN(C(=O)c1cccn1Cc1ccncc1)c1nccs1 [Compound B13]
> 25	> 25	> 25	> 25	> 25	> 25	CCN(C(=O)c1cccn1Cc1ccncc1)c1nccs1 [Compound B14]
> 25	> 25	> 25	> 25	> 25	> 25	N#Cc1cnc(NC(=O)c2cccn2Cc2ccncc2)s1 [Compound B15]
> 25	> 25	> 25	> 25	> 25	> 25	CNC(=O)c1cnc(NC(=O)c2cccn2Cc2ccncc2)s1 [Compound B16]
> 25	> 25	> 25	> 25	> 25	> 25	O=C(Nc1ncc([N+](=O)[O-])s1)c1cccn1Cc1ccncc1 [Compound B17]
> 25	> 25	> 25	> 25	> 25	> 25	NC(=O)Cc1csc(NC(=O)c2cccn2Cc2ccncc2)n1 [Compound B18]
> 25	> 25	> 25	> 25	> 25	> 25	CN(C)Cc1csc(NC(=O)c2cccn2Cc2ccncc2)n1 [Compound B19]
> 25	> 25	> 25	> 25	> 25	> 25	CC(C)c1csc(NC(=O)[C@@H]2CCCN2C(=O)c2ccncc2)n1 [Compound B20, (S)-1-isonicotinoyl-N-(4-isopropylthiazol-2-yl)pyrrolidine-2-carboxamide]
> 25	> 25	> 25	> 25	> 25	> 25	CC(C)c1csc(NC(=O)[C@H]2CCCN2C(=O)c2ccncc2)n1 [Compound B21, (R)-1-isonicotinoyl-N-(4-isopropylthiazol-2-yl)pyrrolidine-2-carboxamide]
> 25	> 25	> 25	> 25	> 25	> 25	CC(=O)NCCc1nc(NC(=O)c2cccn2Cc2ccncc2)sc1C [Compound B22, N-(4-(2-acetamidoethyl)-5-methylthiazol-2-yl)-1-(pyridin-4-ylmethyl)-1H-pyrrole-2-carboxamide]
> 25	> 25	> 25	> 25	> 25	> 25	CC(C)(C)[C@H]1C[C@@H]1NC(=O)c1cccn1Cc1ccncc1 [Compound B23, N-((1S,2R)-2-(tert-butyl)cyclopropyl)-1-(pyridin-4-ylmethyl)-1H-pyrrole-2-carboxamide]
> 25	> 25	> 25	> 25	> 25	> 25	CCc1nc(NC(=O)[C@H]2CCCN2Cc2ccncc2)sc1C [Compound B24]
> 25	> 25	> 25	> 25	> 25	> 25	CCc1cc(N(C)C(=O)c2cccn2Cc2ccncc2)ccc1C [Compound B25, N-(3-ethyl-4-methylphenyl)-N-methyl-1-(pyridin-4-ylmethyl)-1H-pyrrole-2-carboxamide]
